Legend:
Type in all cases: cell-based
BRM [1] = molecular target: T1, BRM (Homo sapiens, UniProt P51531); assay: Immunofluorescence assay for BRM degradation in SW1573 cells; parameters: treated overnight at 4° C. with either BRM primary antibody (Cell signaling Cat #11966) or BRG primary antibody; endogenous in cells; host or cells: SW1573; settings: 20 hours incubation; for DC50: immunofluorescence mean nuclear signal, read-out: BRM IF Degradation IC50; for BRM IF Degradation Sinf (%): normalized to a known degrader control
Summary of the method: (§1)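 Read-out: mean per-cell nuclear BRM or BRG1 immunofluorescence by automated imaging. SW1573, 20 h compound, 4% formaldehyde fix, Triton permeabilization, overnight 4 °C primary antibody, fluorescent secondary plus Hoechst. Normalized to reference degrader; floating-max curve fit gives Dmax.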

BRG1 = molecular target: T2, BRG1 (Homo sapiens, UniProt P51532); assay: Immunofluorescence assay for BRG1 degradation in SW1573 cells; settings: 20 hours incubation; for DC50: immunofluorescence mean nuclear signal, read-out: BRG1 IF Degradation IC50; for Dmax: SW1573, 20 h, normalized to a known degrader control, read-out: BRG1 IF Degradation Sinf (%)
T2 construct: either BRM primary antibody (Cell signaling Cat #11966) or BRG primary antibody (Abcam, ab 110641); endogenous in cells; host or cells: SW1573
Summary of the method: as §1

BRM [2] = molecular target: T1, BRM; assay: HiBIT nanoluciferase complementation screen for BRM degraders; settings: 18 hours, BRM-HiBIT KI Hela cells, luminescence normalized: DMSO only = 0%, no cells = −100%; for Median HiBiT activity 1 μM: compound 1 μM; for Median HiBiT activity 10 μM: compound 10 μM
Text: Example B-1: HiBIT Nanoluciferase Complementation Screen for BRM Degraders
To assess BRM degradation, compounds were screened for their effect of BRM levels using the HiBIT nanoluciferase complementation strategy developed at Promega. In brief, a HELA cell line that was genetically modified via CRISPR/CAS9 was used to fuse the HiBIT sequence at the 3′ end of BRM (BRM-HiBIT KI Hela). BRM protein levels were then detected using the Nano-Glo HiBIT lytic detection reagent (Promega).
The screened compounds were plated into a white 384-well plate at 10 μM and 1 μM in 25 nL DMSO using an Echo dispenser (Labcyte). BRM-HiBIT KI Hela cells were seeded in the compound plate at 5000 cell per well at 25 μl in DMEM growth media (containing 10% FBS, 1% Glutamax (GIBCO cat #31053-028), lx Penicillin-Streptomycin (ROCHE, cat #1107444001), 4.5 g/L D-Glucose, and no phenol red). After incubation with compounds for 18 hours at 37° C., cell viability was assessed by the addition of 5 μl Cell Titer-Fluor reagent (Promega). After 30 s of mixing on an orbital shaker, and 30 minutes incubation at 37° C., fluorescence was measured with an INFINITE F500 (Tecan) (380-400 nm excitation, 505 nm emission). Next, to assess BRM HiBIT levels, 30 μl of Nano-Glo HiBIT lytic detection reagent (Promega) containing 1:50 Nano-Glo HiBIT lytic substrate and 1:100 LgBIT protein per ml of lytic buffer was added. After shaking on an orbital shaker at 350 rpm for 10 minutes, luminescence was measured on the INFINITE F500 (Tecan). To assess compound effects, luminescence signal was normalized with the mean of wells treated with DMSO only set to 0% and the mean of wells containing no cells set to −100%. Note that, in Table 4, the “Compound Number” corresponds to that used in Table 1.

T1 sequence (P51531 whole entry): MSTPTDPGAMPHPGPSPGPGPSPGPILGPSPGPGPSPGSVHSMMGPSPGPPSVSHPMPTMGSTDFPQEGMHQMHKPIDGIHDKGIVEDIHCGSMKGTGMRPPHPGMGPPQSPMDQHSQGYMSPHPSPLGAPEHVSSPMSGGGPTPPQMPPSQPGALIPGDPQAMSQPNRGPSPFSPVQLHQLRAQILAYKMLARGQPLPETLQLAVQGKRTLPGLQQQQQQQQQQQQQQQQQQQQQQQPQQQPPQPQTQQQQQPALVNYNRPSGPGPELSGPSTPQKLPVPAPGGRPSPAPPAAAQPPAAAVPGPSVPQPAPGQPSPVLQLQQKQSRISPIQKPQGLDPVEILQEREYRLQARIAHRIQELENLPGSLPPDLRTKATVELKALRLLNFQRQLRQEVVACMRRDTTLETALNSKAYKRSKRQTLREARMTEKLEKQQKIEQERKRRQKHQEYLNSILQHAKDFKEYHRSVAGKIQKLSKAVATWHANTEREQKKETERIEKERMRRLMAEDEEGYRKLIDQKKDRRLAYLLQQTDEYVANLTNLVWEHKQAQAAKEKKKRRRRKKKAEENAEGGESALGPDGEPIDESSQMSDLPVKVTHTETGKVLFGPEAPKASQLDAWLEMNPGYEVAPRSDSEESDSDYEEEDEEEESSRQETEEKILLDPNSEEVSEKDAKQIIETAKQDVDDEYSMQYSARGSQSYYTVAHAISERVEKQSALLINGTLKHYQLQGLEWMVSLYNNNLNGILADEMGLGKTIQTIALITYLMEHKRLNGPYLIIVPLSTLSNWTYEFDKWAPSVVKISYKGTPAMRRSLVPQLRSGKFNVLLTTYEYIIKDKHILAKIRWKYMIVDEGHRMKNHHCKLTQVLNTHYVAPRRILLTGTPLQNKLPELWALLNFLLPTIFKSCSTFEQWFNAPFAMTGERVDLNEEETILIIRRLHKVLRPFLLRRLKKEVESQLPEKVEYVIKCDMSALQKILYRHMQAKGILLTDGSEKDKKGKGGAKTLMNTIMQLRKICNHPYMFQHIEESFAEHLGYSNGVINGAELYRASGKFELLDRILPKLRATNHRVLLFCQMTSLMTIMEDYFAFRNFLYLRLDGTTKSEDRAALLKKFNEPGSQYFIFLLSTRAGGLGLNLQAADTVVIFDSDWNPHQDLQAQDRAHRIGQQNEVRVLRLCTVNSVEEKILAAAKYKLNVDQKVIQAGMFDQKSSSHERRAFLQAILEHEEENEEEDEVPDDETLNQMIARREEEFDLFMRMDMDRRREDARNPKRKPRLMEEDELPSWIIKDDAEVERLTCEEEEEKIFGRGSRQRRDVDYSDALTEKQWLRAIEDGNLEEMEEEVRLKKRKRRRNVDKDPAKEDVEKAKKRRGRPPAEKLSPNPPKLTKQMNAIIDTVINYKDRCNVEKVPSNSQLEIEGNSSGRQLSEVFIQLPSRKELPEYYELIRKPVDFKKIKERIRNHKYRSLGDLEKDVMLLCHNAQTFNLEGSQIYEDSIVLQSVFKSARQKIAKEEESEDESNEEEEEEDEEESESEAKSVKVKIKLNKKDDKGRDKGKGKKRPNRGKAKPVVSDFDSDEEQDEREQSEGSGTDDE
T2 sequence (P51532 whole entry): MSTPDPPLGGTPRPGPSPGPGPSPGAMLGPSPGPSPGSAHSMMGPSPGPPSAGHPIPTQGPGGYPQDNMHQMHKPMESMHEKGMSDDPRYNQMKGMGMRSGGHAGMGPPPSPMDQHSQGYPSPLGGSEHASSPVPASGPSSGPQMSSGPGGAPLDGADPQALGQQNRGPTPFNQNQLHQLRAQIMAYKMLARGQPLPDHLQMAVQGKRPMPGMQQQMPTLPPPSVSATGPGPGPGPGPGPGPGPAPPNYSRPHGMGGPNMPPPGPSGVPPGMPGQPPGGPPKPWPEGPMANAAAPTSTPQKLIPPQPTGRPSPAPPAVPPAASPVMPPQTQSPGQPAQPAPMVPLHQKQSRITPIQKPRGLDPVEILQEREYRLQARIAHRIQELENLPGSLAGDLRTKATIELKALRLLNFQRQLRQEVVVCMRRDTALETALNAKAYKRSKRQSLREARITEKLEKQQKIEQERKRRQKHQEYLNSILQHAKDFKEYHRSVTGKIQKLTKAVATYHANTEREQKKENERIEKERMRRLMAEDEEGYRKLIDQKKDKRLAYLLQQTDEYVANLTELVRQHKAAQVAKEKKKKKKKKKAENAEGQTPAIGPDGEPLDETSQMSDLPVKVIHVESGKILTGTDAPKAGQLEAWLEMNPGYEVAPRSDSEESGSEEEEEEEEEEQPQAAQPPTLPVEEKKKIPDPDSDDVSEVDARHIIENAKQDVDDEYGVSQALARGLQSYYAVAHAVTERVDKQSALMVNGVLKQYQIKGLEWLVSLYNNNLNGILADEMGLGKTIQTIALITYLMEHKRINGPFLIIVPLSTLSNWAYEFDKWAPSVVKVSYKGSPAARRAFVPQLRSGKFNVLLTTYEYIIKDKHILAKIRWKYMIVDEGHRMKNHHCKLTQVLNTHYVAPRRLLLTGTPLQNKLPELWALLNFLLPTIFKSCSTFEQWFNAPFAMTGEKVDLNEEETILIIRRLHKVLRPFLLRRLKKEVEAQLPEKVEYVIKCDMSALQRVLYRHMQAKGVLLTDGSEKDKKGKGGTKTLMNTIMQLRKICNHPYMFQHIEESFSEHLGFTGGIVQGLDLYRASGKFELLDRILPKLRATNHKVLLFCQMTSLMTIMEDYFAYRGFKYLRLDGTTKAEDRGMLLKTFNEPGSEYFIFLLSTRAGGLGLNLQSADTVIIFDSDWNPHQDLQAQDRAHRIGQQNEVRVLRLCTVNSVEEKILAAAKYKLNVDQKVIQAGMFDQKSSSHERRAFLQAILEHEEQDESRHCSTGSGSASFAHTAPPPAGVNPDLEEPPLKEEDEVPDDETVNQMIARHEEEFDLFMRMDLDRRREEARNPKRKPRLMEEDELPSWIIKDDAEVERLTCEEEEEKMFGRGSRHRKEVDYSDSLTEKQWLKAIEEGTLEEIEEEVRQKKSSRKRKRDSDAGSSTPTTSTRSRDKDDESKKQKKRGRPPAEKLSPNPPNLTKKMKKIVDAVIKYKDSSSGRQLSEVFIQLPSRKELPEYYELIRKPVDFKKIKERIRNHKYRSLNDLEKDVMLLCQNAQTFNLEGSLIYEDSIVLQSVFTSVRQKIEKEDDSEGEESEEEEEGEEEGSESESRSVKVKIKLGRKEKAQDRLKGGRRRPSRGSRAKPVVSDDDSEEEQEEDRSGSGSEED

| SMILES | DC50 (BRM [1]) [nM] | BRM IF Degradation Sinf (%) (BRM [1]) | DC50 (BRG1) [nM] | Median HiBiT activity 1 μM (BRM [2]) [%] | Median HiBiT activity 10 μM (BRM [2]) [%] | Dmax (BRG1) [%] |
| --- | --- | --- | --- | --- | --- | --- |
| Nc1nnc(-c2ccccc2O)cc1N1CC2CCC(C1)N2c1ccnc(C#CC2CNCCO2)c1 (centres unmarked) [Compound 7, 2-(6-amino-5-(8-(2-(morpholin-2-ylethynyl)pyridin-4-yl)-3,8-diazabicyclo[3.2.1]octan-3-yl)pyridazin-3-yl)phenol] | < 10 | E (E indicates −30%-−70%) | > 100 | −56.5569 | −25.5864 |  |
| Nc1nnc(-c2ccccc2O)cc1N1CC2CCC(C1)N2c1ccnc(C#CC2CCCNC2)c1 (centres unmarked) [Compound 8, 2-(6-amino-5-(8-(2-(piperidin-3-ylethynyl)pyridin-4-yl)-3,8-diazabicyclo[3.2.1]octan-3-yl)pyridazin-3-yl)phenol] | 10 to 100 | E (E indicates −30%-−70%) | > 100 | −51.6794 | −23.8415 |  |
| Nc1nnc(-c2ccccc2O)cc1N1CC2CCC(C1)N2c1ccnc(C#CCN2CCOCC2)c1 [Compound 9, 2-(6-amino-5-(8-(2-(3-morpholinoprop-1-yn-1-yl)pyridin-4-yl)-3,8-diazabicyclo[3.2.1]octan-3-yl)pyridazin-3-yl)phenol] | 10 to 100 | E (E indicates −30%-−70%) | < 10 | −50.6553 | −33.5251 | 0 to 30 |
| Nc1nnc(-c2ccccc2O)cc1N1CC2CCC(C1)N2c1ccnc(C#CCN2CCNCC2=O)c1 [Compound 10, 1-(3-(4-(3-(3-amino-6-(2-hydroxyphenyl)pyridazin-4-yl)-3,8-diazabicyclo[3.2.1]octan-8-yl)pyridin-2-yl)prop-2-yn-1-yl)piperazin-2-one] | 10 to 100 | E (E indicates −30%-−70%) | > 100 | −50.554 | −56.7556 |  |
| NCCCCCCC#Cc1cc(N2C3CCC2CN(c2cc(-c4ccccc4O)nnc2N)C3)ccn1 [Compound 11, 2-(6-amino-5-(8-(2-(8-aminooct-1-yn-1-yl)pyridin-4-yl)-3,8-diazabicyclo[3.2.1]octan-3-yl)pyridazin-3-yl)phenol] | 10 to 100 | F (F indicates −71%-−120%) | 10 to 100 | −46.2503 | −53.1423 | 30 to 70 |
| Nc1nnc(-c2ccccc2O)cc1N1CC2CCC(C1)N2c1ccnc(C#CCOC2CCCNC2)c1 (centres unmarked) [Compound 12, 2-(6-amino-5-(8-(2-(3-(piperidin-3-yloxy)prop-1-yn-1-yl)pyridin-4-yl)-3,8-diazabicyclo[3.2.1]octan-3-yl)pyridazin-3-yl)phenol] | 10 to 100 | E (E indicates −30%-−70%) | 10 to 100 | −45.7932 | −34.0604 | 0 to 30 |
| Nc1nnc(-c2ccccc2O)cc1N1CC2CCC(C1)N2c1ccnc(C#CCC2CCCCN2)c1 (centres unmarked) [Compound 13, 2-(6-amino-5-(8-(2-(3-(piperidin-2-yl)prop-1-yn-1-yl)pyridin-4-yl)-3,8-diazabicyclo[3.2.1]octan-3-yl)pyridazin-3-yl)phenol] | 10 to 100 | E (E indicates −30%-−70%) | 10 to 100 | −44.9864 | −32.1865 | 0 to 30 |
| Nc1nnc(-c2ccccc2O)cc1N1CC2CCC(C1)N2c1ccnc(C#CC2CCCN2)c1 (centres unmarked) [Compound 14, 2-(6-amino-5-(8-(2-(pyrrolidin-2-ylethynyl)pyridin-4-yl)-3,8-diazabicyclo[3.2.1]octan-3-yl)pyridazin-3-yl)phenol] | < 10 | E (E indicates −30%-−70%) | 10 to 100 | −42.9269 | −50.5501 | 0 to 30 |
| Nc1nnc(-c2ccccc2O)cc1N1CC2CCC(C1)N2c1ccnc(C#CCN2CCC(N)C2)c1 (centres unmarked) [Compound 15, 2-(6-amino-5-(8-(2-(3-(3-aminopyrrolidin-1-yl)prop-1-yn-1-yl)pyridin-4-yl)-3,8-diazabicyclo[3.2.1]octan-3-yl)pyridazin-3-yl)phenol] | > 100 | E (E indicates −30%-−70%) | > 100 | −41.5313 | −55.0083 | 0 to 30 |
| Nc1nnc(-c2ccccc2O)cc1N1CC2CCC(C1)N2c1ccnc(C#CCC2CCCN2)c1 (centres unmarked) [Compound 16, 2-(6-amino-5-(8-(2-(3-(pyrrolidin-2-yl)prop-1-yn-1-yl)pyridin-4-yl)-3,8-diazabicyclo[3.2.1]octan-3-yl)pyridazin-3-yl)phenol] | 10 to 100 | E (E indicates −30%-−70%) | 10 to 100 | −38.7074 | −29.4258 | 0 to 30 |
| Nc1nnc(-c2ccccc2O)cc1N1CC2CCC(C1)N2c1ccnc(C#CC2CCN2)c1 (centres unmarked) [Compound 17, 2-(6-amino-5-(8-(2-(azetidin-2-ylethynyl)pyridin-4-yl)-3,8-diazabicyclo[3.2.1]octan-3-yl)pyridazin-3-yl)phenol] | 10 to 100 | E (E indicates −30%-−70%) | 10 to 100 | −37.0864 | −51.9890 | 0 to 30 |
| Nc1nnc(-c2ccccc2O)cc1N1CC2CCC(C1)N2c1ccnc(C#CCN2CCS(=O)(=O)CC2)c1 [Compound 18, 4-(3-(4-(3-(3-amino-6-(2-hydroxyphenyl)pyridazin-4-yl)-3,8-diazabicyclo[3.2.1]octan-8-yl)pyridin-2-yl)prop-2-yn-1-yl)thiomorpholine1,1-dioxide] | > 100 | E (E indicates −30%-−70%) | > 100 | −37.0807 | −56.4043 |  |
| Nc1nnc(-c2ccccc2O)cc1N1CC2CCC(C1)N2c1ccnc(C#CC2CCNCC2)c1 [Compound 19, 2-(6-amino-5-(8-(2-(piperidin-4-ylethynyl)pyridin-4-yl)-3,8-diazabicyclo[3.2.1]octan-3-yl)pyridazin-3-yl)phenol] | 10 to 100 | E (E indicates −30%-−70%) | > 100 | −36.9943 | −56.3342 | 30 to 70 |
